Results taken from US20240261294A1, “METHOD FOR TREATING IDH INHIBITOR-RESISTANT SUBJECTS” (Eli Lilly and Company, priority 2021, published 2024).
Substitutions are numbered along the chain they refer to. Where two headings read alike, the source gives them in different places.

Assays:
[1] = target: T1, IDH2 R140Q_I319M cis (Homo sapiens, UniProt P48735, I319M/R140Q); experiment: Inhibition of 2-HG production in IDH2 mutant U-87 MG cells; format: cell-based
T1 construct: expressed in transfected cells; host or cells: U-87 MG
T1 sequence (P48735 40-452 R140Q/I319M): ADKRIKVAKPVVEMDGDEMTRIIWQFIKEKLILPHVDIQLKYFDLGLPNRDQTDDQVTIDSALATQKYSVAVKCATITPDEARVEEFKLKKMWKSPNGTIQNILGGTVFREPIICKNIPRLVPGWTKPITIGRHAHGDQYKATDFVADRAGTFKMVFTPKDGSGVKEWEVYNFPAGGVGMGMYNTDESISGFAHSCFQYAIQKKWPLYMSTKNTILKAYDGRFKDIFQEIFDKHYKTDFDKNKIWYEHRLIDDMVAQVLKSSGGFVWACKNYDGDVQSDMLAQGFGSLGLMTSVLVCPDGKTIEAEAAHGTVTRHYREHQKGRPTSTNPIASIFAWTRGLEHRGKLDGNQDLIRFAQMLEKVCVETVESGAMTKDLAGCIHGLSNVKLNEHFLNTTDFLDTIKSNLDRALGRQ
Description: (§1) Compounds and Formulation. Compound A may be synthesized as described in WO/18/111707. Compound A is prepared as a 20 mM stock in 100% DMSO (dimethyl sulfoxide) (Sigma, D2438) and diluted serially in 100% DMSO to achieve the desired concentrations. DMSO preparations are further diluted with cell culture media prior to addition in the assay.
(§2) Cell lines. U-87 MG cells (ATCC, HTB-14) are cultured and assayed in MEM (Gibco, 11095) with 2 mM GlutaMAX (Gibco, 35050), 1 mM Pyruvate (Gibco, 11360), 0.1 mM NEAA ((Non-essential amino acid) Gibco, 11140) and 10% dialyzed FBS (Fetal bovine serum) (Gibco, 26400).
(§3) Cell-based inhibition assays. Cell-based assays are performed by measuring 2-HG in U-87 MG cells in which IDH2 mutations are expressed.
(§4) DNA constructs encoding IDH2 mutations are introduced into U-87 MG cells using transfection (Promega FuGENE HD, E2311) or lentiviral transduction, and the IDH2-mutant expressing cell lines are selected using blasticidin (5 μg/ml) or puromycin (1 μg/ml). Second site mutations (Q316E, I319M, P167R, and G260A) are evaluated in cis (same monomer as driver mutation within dimer) or in trans (opposite monomer from driver mutation in dimer). For compound treatments, 12,500 or 50,000 cells per well in culture medium (150 μl or 100 μl, respectively) are plated in 96 well cell culture plates (Falcon, 353377) 2 hrs prior to treatment. Cells are treated with serial dilutions of compound A in standard growth media. Plates are incubated in a mammalian cell culture incubator (humidified, 37° C., 5% CO2) for 16 or 72 hrs. Following the incubation period, the media is aspirated and cell extracts are prepared by addition of ice-cold 80% methanol/20% water (100 μL) containing liquid chromatography-mass spectrometry (LC-MS) internal standards (1 μM ^13C4 α-KG and ^13C5 2-HG) per well for ion pairing LC-MS method. 96-well sample plates are then sealed, shaken at 450 rpm for 10 min, and then placed at −20° C. and stored until LC-MS analysis.
(§5) LC-MS metabolite analysis of conditioned media and cell lysates. The effect of inhibitors on the concentrations of 2-HG are determined by LC-MS analysis of cell lysates using an ion-pairing method as described below.
(§6) Calibration curves are prepared by spiking 2-HG and α-KG into 80% methanol/20% water containing LC-MS internal standards (1 μM ^13C4 α-KG and 1 μM ^13C5 2-HG). The quantitation of 2-HG and α-KG is accomplished using an AB Sciex 6500 mass spectrometer with an Electrospray Ionization (ESI) probe and interfaced with an Ultra Performance Liquid Chromatography (UHPLC) system in the negative multiple-reaction monitoring (MRM) mode. The UHPLC system consists of an Agilent 1290 binary pump, thermostatted column compartment (TCC), and sampler. The injection volume is 1 μL for cell culture extracts. The extracts are chromatographically resolved using a Hypercarb column, 2.1×20 mm, […] Javelin HTS (Thermo Scientific, PN: 35005-022135). Mobile phase A is water/10 mM tributylamine/15 mM acetic acid. Mobile phase B is acetonitrile/20 mM tributylamine/30 mM acetic acid. The solvent flow rate is 1.0 mL/min. The isocratic condition is kept at 26% mobile phase B. The valve, sample loop, and needle are washed with 50% acetonitrile: 50% methanol for 20 seconds. The column temperature is kept at 55° C. Calibration curves are calculated by least-square linear regression with 1/x weighting. 2-HG and α-KG are quantified using standard curve and ratio of the peak area of analytes to internal standard. Data analysis is performed using MultiQuant 3.0 (AB Sciex). The raw data are exported to Microsoft Excel spreadsheets.
(§7) Determination of IC50 Curves. IC50 curves for each compound are obtained using four parameter data fitting analysis in GraphPad/Prism software.

[2] = target: T2, IDH2 R172K (Homo sapiens, UniProt P48735, R172K); experiment: as above; format: cell-based
T2 sequence (P48735 40-452 R172K): T1 sequence (P48735 40-452 R140Q/I319M) with Q101R, R133K, M280I
Description: as §1, §2, §3, §4, §5, §6, §7

[3] = 16 hours incubation, 50K cells/well, 100 μl media/well, read-out: Relative IC50 (nM) Mean, inhibition of 2-HG production
[4] = 72 hours incubation, 12.5K cells/well, 150 μl media/well, read-out: IC50, inhibition of 2-HG production

IC50 [1, 3]: 29 nM
IC50 [1, 4]: 30.4 nM
IC50 [2, 3]: 56 nM
IC50 [2, 4]: 13.5 nM
Structure (SMILES): C=CC(=O)N1CCN([C@@H](CC2CC2)c2ccc([C@H](C)Nc3ncc4c(n3)N(CC)C(=O)OC4)cc2)CC1 [Compound A, 7-[[(1S)-1-[4-[(1S)-2-cyclopropyl-1-(4-prop-2-enoylpiperazin-1-yl)ethyl]phenyl]ethyl]amino]-1-ethyl-4H-pyrimido[4,5-d][1,3]oxazin-2-one]
